Laboratory results published in publication PMC6277198, “Molecular basis for activation of lecithin:cholesterol acyltransferase by a compound that increases HDL cholesterol” (eLife, 2018).
Residue numbers refer to the chain shown, from its start.

Key:
LCAT R244A [1] = target: T1, LCAT R244A (Homo sapiens, UniProt P04180, R268A); test: DHE acyltransferase assay with peptide-based HDLs; format: biochemical
T1 construct: hydrolysis of 4-methylumbelliferyl palmitate (MUP) by full-length LCAT; made in house; host or cells: HEK293F (transient transfection, secreted)
T1 sequence (P04180 25-440 R268A): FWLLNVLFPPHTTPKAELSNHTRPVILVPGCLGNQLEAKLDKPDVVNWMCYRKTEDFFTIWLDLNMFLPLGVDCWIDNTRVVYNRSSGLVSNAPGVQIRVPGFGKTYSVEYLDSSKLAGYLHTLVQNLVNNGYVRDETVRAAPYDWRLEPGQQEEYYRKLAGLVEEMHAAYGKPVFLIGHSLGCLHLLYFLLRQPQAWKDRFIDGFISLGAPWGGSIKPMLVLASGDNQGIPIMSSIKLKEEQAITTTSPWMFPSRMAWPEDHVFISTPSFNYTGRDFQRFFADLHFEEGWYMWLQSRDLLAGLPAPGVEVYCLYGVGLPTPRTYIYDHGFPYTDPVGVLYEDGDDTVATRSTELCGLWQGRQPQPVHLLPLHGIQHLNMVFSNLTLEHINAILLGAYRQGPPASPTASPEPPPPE
Experimental: Peptide-based HDLs were used in this assay as there is no difference between peptide HDLs and ApoA-I HDLs in both HDL binding and acyltransferase assays ([Manthei et al., 2017]). The peptide HDLs were made using the ESP24218 peptide with the sequence […] ([Dassuex et al., 1999]; [Li et al., 2015]) with a DPPC:POPC:DHE ratio of 47:47:6 as previously described ([Manthei et al., 2017]). The assay was performed in 384-well low volume black microplates (Corning 4514) with a total assay volume of 16 μL. In each reaction, LCAT was diluted in assay buffer to 15 μg mL^−1 in the presence of either 1% DMSO or 10 μM 2 with 1% DMSO. Compound 2 was used in this assay because it has lower background fluorescence than 1. The DHE HDLs were diluted in 1X PBS with 1 mM EDTA and 5 mM β-mercaptoethanol. 8 μL of the HDLs were added to the plate, and the reactions were initiated with 8 μL of LCAT, so that LCAT was assayed at 7.5 μg mL^−1 with and without 5 μM compound with a range of DHE concentrations from 0 to 50 μM. The reactions were stopped after 25 min at 37 °C with the addition of 4 μL of stop solution (1X PBS with 1 mM EDTA, 5 U mL^−1 cholesterol oxidase (COx), and 7% Triton X100). Following the addition of stop solution, the plates were incubated for another 60 min at 37 °C to allow for the COx to react. After the plates were re-equilibrated at room temperature, fluorescence was determined on a SpectraMax plate reader with excitation at 325 nm and emission at 425 nm, with a 420 nm cutoff. Reactions without LCAT were used for background subtraction, and reactions without LCAT and stop solution lacking COx were used to generate a standard curve for DHE. Reactions were performed in triplicate with three independent experiments per LCAT variant. Data were processed via background subtraction to remove excess fluorescence that results from the higher concentrations of DHE. […] Outliers were removed using automatic outlier elimination within Prism. For statistical analysis, the Vmax for each variant was compared to WT using a one-way analysis of variance followed by Tukey’s multiple comparisons post-test in GraphPad Prism.
To determine EC50 values, compound 2 was titrated from 0.004 to 10 μM, and the DHE concentration was set at 50 μM. LCAT was diluted in assay buffer and compound 2 dilutions were made with assay buffer containing 5.3% DMSO. 1.5 μL compound was added, then 6.5 μL LCAT, followed by 8 μL DHE. Dilutions were adjusted so that LCAT was assayed at 7.5 μg mL^−1, as above. All values were background subtracted to buffer with the same concentration of compound 2. A standard curve was included in one experiment with DHE from 0 to 50 μM in order to adjust the final fluorescence values to a rate by dividing by the slope of the line and time (25 min), as above. Outliers were removed using automatic outlier elimination within Prism. For statistical analysis, the EC50 for each variant was compared to WT using a one-way analysis of variance followed by Tukey’s multiple comparisons post-test in GraphPad Prism.

LCAT R244H = target: T2, LCAT R244H (Homo sapiens, UniProt P04180, R268H); test: Differential scanning fluorimetry; format: binding; settings: addition of compound 1
T2 construct: hydrolysis of 4-methylumbelliferyl palmitate (MUP) by full-length LCAT; made in house; host or cells: HEK293F (transient transfection, secreted)
T2 sequence (P04180 25-440 R268H): T1 sequence (P04180 25-440 R268A) with A244H
Experimental: (§1) Tm values were determined using an Applied Biosystems QuantStudio 7 Flex qPCR machine with two replicates performed at least in triplicate. LCAT at 0.05 mg mL^−1 was diluted into reaction buffer containing 5X Sypro Orange in a final volume of 10 μL in 384-well PCR plates. DMSO or compound 1 was added so that all reactions contained 3% DMSO. The reactions were run from 25–95 °C with a ramp rate of 0.03 °C s^−1. Tm values were determined as the derivative using Protein Thermal Shift software. Significance was determined using a one-way analysis of variance followed by Tukey’s multiple comparisons post-test in GraphPad Prism.

LCAT R244A [2] = target: T1, LCAT R244A; test: Differential scanning fluorimetry; format: binding; settings: addition of compound 1
Experimental: as §1

[3] = system: LCAT Y51S, G71I, and Y51S/G71I variants; test: Differential scanning fluorimetry; format: binding, human
Experimental: as §1

[4] = system: LPLA2 chimeric variants (S33Y, I53G, and S33Y/I53G); test: Differential scanning fluorimetry; format: binding

EC50 (LCAT R244A [1]; compound 2 titrated from 0.004 to 10 μM, DHE 50 μM) [nM] | acyltransferase rate (LCAT R244A [1]; highest concentration tested, 10 μM compound 2) [µM/h] | ∆Tm (LCAT R244H) | ∆Tm (LCAT R244A [2]) | SMILES | Increase of Tm compared to WT (DSF) [3] | Thermal stabilization (DSF) [4]
760 ± 200 | 18 | – | – | O=C1CC(O)(C(F)(F)F)c2c(C3CCN(c4cnc(C(F)(F)F)cn4)CC3)n[nH]c2N1 (stereo not drawn) [compound 2, 4-Hydroxy-4-(trifluoromethyl)−3-(1-(5-(trifluoromethyl)pyrazin-2-yl)piperidin-4-yl)−4,5-dihydro-1H-pyrazolo[3,4-b]pyridin-6(7H)-one] | – | –
– | – | 4.8 ˚C | 6.0 ˚C | N#Cc1cnc(N2CCC(c3n[nH]c4c3C(O)(C(F)(F)F)CC(=O)N4)CC2)cc1C(F)(F)F (stereo not drawn) [compound 1, 6-(4-(4-Hydroxy-6-oxo-4-(trifluoromethyl)−4,5,6,7-tetrahydro-1H-pyrazolo[3,4-b]pyridin-3-yl)piperidin-1-yl)−4-(trifluoromethyl)nicotinonitrile] | far less effective | unable to be stabilized
